Data: patent publication US20080009418A1, “Selective Inhibitors” (Alchemia LTD., priority 2004, published 2008)

Experiments:
Mouse urotensin (mUR2) = target: T1, Mouse urotensin (mUR2) (Mus musculus, UniProt Q8VIH9); assay: Radioligand binding, mouse urotensin mUR2 membranes, FlashPlate, [125I]-Urotensin II; details: compound at 10 μM; [125I]-Urotensin II
T1 construct: purchased Perkin Elmer Biosignal
T1 sequence (Q8VIH9 1-385): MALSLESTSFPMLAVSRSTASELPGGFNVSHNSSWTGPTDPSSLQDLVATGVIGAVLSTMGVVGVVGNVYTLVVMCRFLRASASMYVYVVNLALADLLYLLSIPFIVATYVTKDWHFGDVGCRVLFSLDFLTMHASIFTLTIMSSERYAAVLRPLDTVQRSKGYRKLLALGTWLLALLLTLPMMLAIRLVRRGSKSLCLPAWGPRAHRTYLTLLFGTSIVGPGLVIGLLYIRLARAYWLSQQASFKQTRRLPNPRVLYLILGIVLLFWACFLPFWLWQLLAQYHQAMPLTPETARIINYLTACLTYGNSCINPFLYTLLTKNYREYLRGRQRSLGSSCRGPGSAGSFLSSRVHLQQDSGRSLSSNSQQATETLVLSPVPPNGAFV
In short: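 Cloned mouse urotensin (mUR2) receptor membranes from Perkin Elmer Biosignal were immobilized in FlashPlate microplates using a proprietary coating. Each well got 19.5 μl buffer, then 0.5 μl of DMSO, reference ligand, or compound. Adding 5 μl of [125I]-Urotensin II, diluted to 5× final concentration in binding buffer, started binding. Plates were sealed with TopSeal-A and incubated 1 hour at room temperature in the dark. Wells were counted for 30 seconds each on a TopCount after a 60-second delay, and percentage inhibition was calculated.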

[1] = target: T2, Human melanin-concentrating hormone (MCH1) (Homo sapiens, UniProt Q99705); assay: Radioligand binding, human melanin-concentrating hormone MCH1 membranes, FlashPlate, [125I]-S36057; details: compound at 10 μM; [125I]-S36057
T2 construct: purchased Perkin Elmer Biosignal
In short: (§1)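 Cloned human receptor membranes were coated onto FlashPlate wells and incubated with radioligand and compound (added from a 0.5 mM DMSO daughter plate) for 1 hour at room temperature in the dark. Scintillation counting gave percent inhibition, with DMSO defining total and reference ligand defining non-specific binding.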

[2] = target: T3, Human neuropeptide Y (NPY-Y1) (Homo sapiens, UniProt P25929); assay: Radioligand binding, human neuropeptide Y NPY-Y1 membranes, FlashPlate, [125I]-PYY; details: compound at 10 μM; [125I]-PYY
T3 construct: purchased Perkin Elmer Biosignal
T3 sequence (P25929 1-384): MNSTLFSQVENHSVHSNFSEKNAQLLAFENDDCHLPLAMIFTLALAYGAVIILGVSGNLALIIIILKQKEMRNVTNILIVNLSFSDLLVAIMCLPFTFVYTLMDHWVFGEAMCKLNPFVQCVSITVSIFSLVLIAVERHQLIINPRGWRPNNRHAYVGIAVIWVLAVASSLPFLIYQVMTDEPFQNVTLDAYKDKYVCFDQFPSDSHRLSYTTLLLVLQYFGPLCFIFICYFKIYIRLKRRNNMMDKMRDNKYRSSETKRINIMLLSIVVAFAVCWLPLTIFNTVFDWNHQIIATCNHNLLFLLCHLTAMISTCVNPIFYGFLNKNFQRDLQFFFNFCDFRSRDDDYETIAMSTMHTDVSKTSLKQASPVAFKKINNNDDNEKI
In short: as §1

Human κ-Opioid (KOP) = target: T4, Human κ-Opioid (KOP) (Homo sapiens, UniProt P41145); assay: Radioligand binding, human κ-opioid (KOP) membranes, filtration, [3H]-Diprenorphine; details: compound at 10 μM; [3H]-Diprenorphine
T4 construct: purchased Perkin Elmer Biosignal
In short: (§2)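 Filtration binding on cloned human receptor membranes (1 Unit/well), [125I]-Substance P for NK1 and [3H]-Diprenorphine for KOP, 1 h at room temperature. Filters PEI-presoaked, washed with cold 50 mM Tris-HCl pH 7.4, counted by scintillation; percent inhibition calculated, reference ligand defining non-specific binding.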

Human opioid (ORL1) = target: T5, Human opioid (ORL1) (Homo sapiens, UniProt P41146); assay: Radioligand binding, human opioid ORL1 membranes, FlashPlate, [125I]-Nociceptin; details: compound at 10 μM; [125I]-Nociceptin
T5 construct: purchased Perkin Elmer Biosignal
In short: as §1

Human δ-opioid (DOP) = target: T6, Human δ-opioid (DOP) (Homo sapiens, UniProt P41143); assay: Radioligand binding, human δ-opioid (DOP) membranes, FlashPlate, [3H]-Bremazocine; details: compound at 10 μM; [3H]-Bremazocine
T6 construct: purchased Perkin Elmer Biosignal
In short: as §1

Human melanocortin (MC5) = target: T7, Human melanocortin (MC5) (Homo sapiens, UniProt P33032); assay: Radioligand binding, human melanocortin MC5 membranes, FlashPlate, [125I]-NDP-αMSH; details: compound at 10 μM; [125I]-NDP-αMSH
T7 construct: purchased Perkin Elmer Biosignal
In short: as §1

Human Melanocortin (MC3) = target: T8, Human Melanocortin (MC3) (Homo sapiens, UniProt P41968); assay: Radioligand binding, human melanocortin MC3 membranes, FlashPlate, [125I]-NDP-αMSH; details: compound at 10 μM; [125I]-NDP-αMSH
T8 construct: purchased Perkin Elmer Biosignal
In short: as §1

Human Melanocortin (MC4) = target: T9, Human Melanocortin (MC4) (Homo sapiens, UniProt P32245); assay: Radioligand binding, human melanocortin MC4 membranes, FlashPlate, [125I]-NDP-αMSH; details: compound at 10 μM; [125I]-NDP-αMSH
T9 construct: purchased Perkin Elmer Biosignal
In short: as §1

Human μ-opioid (MOP) = target: T10, Human μ-opioid (MOP) (Homo sapiens, UniProt P35372); assay: Radioligand binding, human μ-opioid (MOP) membranes, FlashPlate, [3H]-Naloxone; details: compound at 10 μM; [3H]-Naloxone
T10 construct: purchased Perkin Elmer Biosignal
In short: as §1

Human neurokinin (NK1) = target: T11, Human neurokinin (NK1) (Homo sapiens, UniProt P25103); assay: Radioligand binding, human neurokinin NK1 membranes, filtration, [125I]-Substance P; details: compound at 10 μM; [125I]-Substance P
T11 construct: purchased Perkin Elmer Biosignal
In short: as §2

T2 sequence (Q99705 whole entry): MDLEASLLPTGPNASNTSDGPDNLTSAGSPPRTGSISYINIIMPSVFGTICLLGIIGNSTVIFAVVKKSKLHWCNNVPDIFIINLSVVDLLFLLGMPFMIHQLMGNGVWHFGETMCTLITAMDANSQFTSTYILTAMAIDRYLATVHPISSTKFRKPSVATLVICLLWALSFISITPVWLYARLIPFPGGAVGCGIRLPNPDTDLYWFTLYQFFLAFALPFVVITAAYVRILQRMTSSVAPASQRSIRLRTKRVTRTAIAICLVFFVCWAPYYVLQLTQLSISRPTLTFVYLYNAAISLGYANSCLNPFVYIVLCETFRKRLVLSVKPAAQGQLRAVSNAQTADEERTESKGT
T10 sequence (P35372 whole entry): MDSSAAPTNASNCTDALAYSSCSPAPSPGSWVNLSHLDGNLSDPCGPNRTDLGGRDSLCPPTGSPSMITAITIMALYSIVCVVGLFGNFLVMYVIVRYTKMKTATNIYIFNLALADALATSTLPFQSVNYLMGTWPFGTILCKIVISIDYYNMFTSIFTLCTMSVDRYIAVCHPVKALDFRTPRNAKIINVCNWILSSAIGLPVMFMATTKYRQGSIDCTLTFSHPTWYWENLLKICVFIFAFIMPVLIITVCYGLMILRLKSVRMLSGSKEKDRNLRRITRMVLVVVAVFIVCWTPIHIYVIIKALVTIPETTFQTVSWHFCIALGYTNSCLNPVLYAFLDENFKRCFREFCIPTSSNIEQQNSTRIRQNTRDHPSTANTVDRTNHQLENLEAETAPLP
T7 sequence (P33032 whole entry): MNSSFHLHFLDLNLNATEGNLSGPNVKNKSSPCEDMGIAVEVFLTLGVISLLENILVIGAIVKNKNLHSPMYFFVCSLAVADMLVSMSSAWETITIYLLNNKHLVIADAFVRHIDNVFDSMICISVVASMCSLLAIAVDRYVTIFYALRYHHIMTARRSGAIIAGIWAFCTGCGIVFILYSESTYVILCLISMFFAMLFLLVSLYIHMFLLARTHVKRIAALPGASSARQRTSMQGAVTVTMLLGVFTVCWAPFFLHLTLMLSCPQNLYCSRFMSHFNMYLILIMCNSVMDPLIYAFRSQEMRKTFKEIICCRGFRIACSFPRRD
T5 sequence (P41146 whole entry): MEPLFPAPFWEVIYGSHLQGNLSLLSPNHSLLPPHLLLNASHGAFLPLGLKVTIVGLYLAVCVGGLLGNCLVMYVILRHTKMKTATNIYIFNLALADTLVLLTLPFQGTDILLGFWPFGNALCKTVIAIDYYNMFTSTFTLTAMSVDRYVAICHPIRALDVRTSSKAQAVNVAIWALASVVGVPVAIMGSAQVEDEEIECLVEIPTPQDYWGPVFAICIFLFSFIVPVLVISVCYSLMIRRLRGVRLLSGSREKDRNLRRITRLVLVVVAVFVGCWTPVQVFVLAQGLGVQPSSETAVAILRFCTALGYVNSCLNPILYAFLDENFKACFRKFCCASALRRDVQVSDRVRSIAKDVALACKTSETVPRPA
T9 sequence (P32245 whole entry): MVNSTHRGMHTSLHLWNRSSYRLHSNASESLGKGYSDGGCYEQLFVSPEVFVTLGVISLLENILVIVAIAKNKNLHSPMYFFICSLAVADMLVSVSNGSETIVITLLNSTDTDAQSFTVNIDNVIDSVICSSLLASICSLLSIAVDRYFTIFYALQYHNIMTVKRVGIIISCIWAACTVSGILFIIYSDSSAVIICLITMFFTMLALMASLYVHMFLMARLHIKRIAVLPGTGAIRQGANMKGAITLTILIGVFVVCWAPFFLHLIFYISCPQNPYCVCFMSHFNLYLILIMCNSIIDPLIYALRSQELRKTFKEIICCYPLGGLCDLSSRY
T11 sequence (P25103 whole entry): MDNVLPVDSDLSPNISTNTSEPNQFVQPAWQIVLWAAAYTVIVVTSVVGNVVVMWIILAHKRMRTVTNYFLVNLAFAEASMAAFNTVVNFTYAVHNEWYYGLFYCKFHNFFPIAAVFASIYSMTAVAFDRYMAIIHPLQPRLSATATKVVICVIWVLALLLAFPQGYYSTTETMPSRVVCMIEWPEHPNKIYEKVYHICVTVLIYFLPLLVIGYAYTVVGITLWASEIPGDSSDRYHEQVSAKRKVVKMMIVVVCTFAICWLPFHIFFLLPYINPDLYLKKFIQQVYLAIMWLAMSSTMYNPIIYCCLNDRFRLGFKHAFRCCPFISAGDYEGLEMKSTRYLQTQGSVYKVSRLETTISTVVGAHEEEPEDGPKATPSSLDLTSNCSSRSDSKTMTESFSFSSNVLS
T4 sequence (P41145 whole entry): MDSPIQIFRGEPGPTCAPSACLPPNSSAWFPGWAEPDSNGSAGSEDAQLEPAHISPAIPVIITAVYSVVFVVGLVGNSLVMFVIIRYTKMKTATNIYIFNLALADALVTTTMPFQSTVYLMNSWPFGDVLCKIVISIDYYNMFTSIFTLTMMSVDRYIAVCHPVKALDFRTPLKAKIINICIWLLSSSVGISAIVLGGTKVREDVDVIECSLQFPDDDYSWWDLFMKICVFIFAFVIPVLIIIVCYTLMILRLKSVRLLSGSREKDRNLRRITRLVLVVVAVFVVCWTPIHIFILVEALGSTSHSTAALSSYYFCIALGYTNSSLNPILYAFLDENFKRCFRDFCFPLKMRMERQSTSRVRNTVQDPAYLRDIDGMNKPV
T8 sequence (P41968 whole entry): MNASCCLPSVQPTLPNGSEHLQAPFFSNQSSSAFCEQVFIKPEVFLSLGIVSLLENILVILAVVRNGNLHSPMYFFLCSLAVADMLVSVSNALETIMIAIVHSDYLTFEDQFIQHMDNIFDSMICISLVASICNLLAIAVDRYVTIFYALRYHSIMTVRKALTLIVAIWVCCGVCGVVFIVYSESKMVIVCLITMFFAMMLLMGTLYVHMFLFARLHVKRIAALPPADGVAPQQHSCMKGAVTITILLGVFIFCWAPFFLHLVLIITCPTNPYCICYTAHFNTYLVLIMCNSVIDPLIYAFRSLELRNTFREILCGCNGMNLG
T6 sequence (P41143 whole entry): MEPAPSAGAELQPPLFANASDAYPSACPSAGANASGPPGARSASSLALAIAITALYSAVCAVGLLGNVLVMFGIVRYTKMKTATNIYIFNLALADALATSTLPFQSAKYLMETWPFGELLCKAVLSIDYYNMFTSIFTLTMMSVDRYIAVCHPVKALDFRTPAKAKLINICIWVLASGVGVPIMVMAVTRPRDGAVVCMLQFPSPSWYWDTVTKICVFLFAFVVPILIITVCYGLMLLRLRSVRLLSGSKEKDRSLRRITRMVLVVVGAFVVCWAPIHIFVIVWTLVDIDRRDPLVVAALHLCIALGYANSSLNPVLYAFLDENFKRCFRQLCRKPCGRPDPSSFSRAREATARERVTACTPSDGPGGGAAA

Row | SMILES | A11: inhibition of radioligand binding, mouse urotensin (mUR2) (Mouse urotensin (mUR2)) | A6: inhibition of radioligand binding, human melanin-concentrating hormone (MCH1) [1] | A9: inhibition of radioligand binding, human neuropeptide Y (NPY-Y1) [2] | A2: inhibition of radioligand binding, human κ-opioid (KOP) (Human κ-Opioid (KOP)) | A10: inhibition of radioligand binding, human opioid (ORL1) (Human opioid (ORL1)) | A1: inhibition of radioligand binding, human δ-opioid (DOP) (Human δ-opioid (DOP)) | A5: inhibition of radioligand binding, human melanocortin (MC5) (Human melanocortin (MC5)) | A3: inhibition of radioligand binding, human melanocortin (MC3) (Human Melanocortin (MC3)) | A4: inhibition of radioligand binding, human melanocortin (MC4) (Human Melanocortin (MC4)) | A7: inhibition of radioligand binding, human μ-opioid (MOP) (Human μ-opioid (MOP)) | A8: inhibition of radioligand binding, human neurokinin (NK1) (Human neurokinin (NK1))
1 | CO[C@H]1[C@H](O)[C@@H](COCc2ccc3ccccc3c2)OC(OCc2ccc(Cl)cc2)[C@@H]1NC(=O)C(N)CN (stereo partly shown) [compound 351] | − (“−” indicates less than 50% inhibition at 10 μM) | − (“−” indicates less than 50% inhibition at 10 μM) | − (“−” indicates less than 50% inhibition at 10 μM) | − (“−” indicates less than 50% inhibition at 10 μM) | − (“−” indicates less than 50% inhibition at 10 μM) | − (“−” indicates less than 50% inhibition at 10 μM) | − (“−” indicates less than 50% inhibition at 10 μM) | − (“−” indicates less than 50% inhibition at 10 μM) | − (“−” indicates less than 50% inhibition at 10 μM) | − (“−” indicates less than 50% inhibition at 10 μM) | + (“+” indicates greater than 50% inhibition at 10 μM)
2 | CO[C@H]1[C@H](O)[C@@H](COCc2ccc3ccccc3c2)OC(OCc2ccc(Cl)cc2)[C@@H]1NC(=O)C1CCCN1 (stereo partly shown) [compound 352] | − (“−” indicates less than 50% inhibition at 10 μM) | − (“−” indicates less than 50% inhibition at 10 μM) | − (“−” indicates less than 50% inhibition at 10 μM) | − (“−” indicates less than 50% inhibition at 10 μM) | − (“−” indicates less than 50% inhibition at 10 μM) | − (“−” indicates less than 50% inhibition at 10 μM) | − (“−” indicates less than 50% inhibition at 10 μM) | − (“−” indicates less than 50% inhibition at 10 μM) | − (“−” indicates less than 50% inhibition at 10 μM) | − (“−” indicates less than 50% inhibition at 10 μM) | + (“+” indicates greater than 50% inhibition at 10 μM)
3 | CO[C@H]1[C@H](O)[C@@H](COCc2ccc3ccccc3c2)OC(OCc2ccc(Cl)cc2)[C@@H]1NC(=O)C1CCCN(C(=N)N)C1 (stereo partly shown) [compound 353] | − (“−” indicates less than 50% inhibition at 10 μM) | − (“−” indicates less than 50% inhibition at 10 μM) | − (“−” indicates less than 50% inhibition at 10 μM) | − (“−” indicates less than 50% inhibition at 10 μM) | − (“−” indicates less than 50% inhibition at 10 μM) | − (“−” indicates less than 50% inhibition at 10 μM) | − (“−” indicates less than 50% inhibition at 10 μM) | − (“−” indicates less than 50% inhibition at 10 μM) | − (“−” indicates less than 50% inhibition at 10 μM) | − (“−” indicates less than 50% inhibition at 10 μM) | + (“+” indicates greater than 50% inhibition at 10 μM)
4 | CO[C@H]1[C@H](O)[C@@H](COCc2ccc3ccccc3c2)OC(OCc2ccc(Cl)cc2)[C@@H]1NC(=O)C1CCN(C(=N)N)CC1 (stereo partly shown) [compound 354] | − (“−” indicates less than 50% inhibition at 10 μM) | − (“−” indicates less than 50% inhibition at 10 μM) | − (“−” indicates less than 50% inhibition at 10 μM) | − (“−” indicates less than 50% inhibition at 10 μM) | − (“−” indicates less than 50% inhibition at 10 μM) | − (“−” indicates less than 50% inhibition at 10 μM) | + (“+” indicates greater than 50% inhibition at 10 μM) | − (“−” indicates less than 50% inhibition at 10 μM) | + (“+” indicates greater than 50% inhibition at 10 μM) | − (“−” indicates less than 50% inhibition at 10 μM) | + (“+” indicates greater than 50% inhibition at 10 μM)
5 | CO[C@H]1[C@H](O)[C@@H](COCc2ccc3ccccc3c2)OC(OCc2ccc(Cl)cc2)[C@@H]1NC(=O)CNC(=N)N (stereo partly shown) [compound 355] | − (“−” indicates less than 50% inhibition at 10 μM) | − (“−” indicates less than 50% inhibition at 10 μM) | − (“−” indicates less than 50% inhibition at 10 μM) | − (“−” indicates less than 50% inhibition at 10 μM) | − (“−” indicates less than 50% inhibition at 10 μM) | − (“−” indicates less than 50% inhibition at 10 μM) | + (“+” indicates greater than 50% inhibition at 10 μM) | − (“−” indicates less than 50% inhibition at 10 μM) | + (“+” indicates greater than 50% inhibition at 10 μM) | − (“−” indicates less than 50% inhibition at 10 μM) | + (“+” indicates greater than 50% inhibition at 10 μM)
